Assay results as given in US10378058B2, “Diagnostic and therapeutic methods and compositions involving PTEN and breast cancer” (Board of Regents of The University of Texas System, priority 2003, dated 2019).
Entries after “also recorded” stand apart in the source; their conditions may differ.

Columns and labels:
BT474 cells = test: Cell viability assay of BT474 cells; type: cell-based, human; conditions: paclitaxel alone without trastuzumab
Protocol: (§1) Cell viability assay. Cells were seeded at 1-5×10^3 cells/well in 96-well plates after oligonucleotide transfection. Viable cells were determined by CellTiter 96 AQueous Non-Radioactive Cell Proliferation Assay (Promega, Madison, Wis.).

PTEN [1] = test: PTEN tyrosine phosphorylation in 435.eB cells; type: cell-based; conditions: vs solvent 10% DMSO
Protocol: (§2) Preparation of Cell Lysates, Immunoprecipitation, and Western Blot Analysis. Cells at 70%-80% confluence were treated with each reagent indicated in the individual experiments. For PTEN phosphotyrosine immunoblots, ErbB2 IP, and Src IP, cells were treated with 30 mM pervanadate for 10 min as described (Lu et al., 2003). Unless noted, cells were washed with PBS and lysed in IP buffer with protease inhibitor cocktail (Sigma Chemical Co., St. Louis, Mo.). Immunoprecipitation and Western blot analysis were performed (Yu et al., 1998).

Src = biological target: T1, Src (Homo sapiens, UniProt P12931); test: Src-Y416 phosphorylation in 435.eB cells; type: cell-based; conditions: vs solvent 10% DMSO
T1 construct: endogenous in cells; host or cells: 435.eB cells
Protocol: as §2

PTEN [2] = test: PTEN expression in BT474 xenografts injected with oligonucleotides; type: in vivo, mice; conditions: intratumor injection 15 μg/injection twice a week for 1 week, ErbB2 expression remained the same
Protocol: Animal experiment. Female athymic nude mice (Harlan Sprague Dawley, Indianapolis, Ind.) were implanted with 0.72-mg 60-day-release 17β-estradiol pellets (Innovative Research, Sarasota, Fla.) and irradiated at 3.5 Gy prior to inoculation. BT474 cells (8×10^6) in 200 μl of PBS and Matrigel (BD Biosciences, Bedford, Mass.) mixture (1:1 ratio) were injected subcutaneously into a mouse mammary fat pad (mfp). When the mfp tumor volume reached >150 mm^3, the tumor was treated with PTEN antisense or control mismatched oligonucleotides (30 μg/week) in saline. […] Tumor diameters were serially measured with calipers and tumor volumes calculated: volume=width^2×length/2. Each treatment group contained 8-12 mice. Unpaired Student's t-test was used to assess statistical significance.

SKBr3 cells = test: Cell proliferation of SKBr3 cells (MTS assay); type: cell-based, human; conditions: PTEN AS alone without trastuzumab, vs MIS
Protocol: as §1

PTEN [3] = test: PTEN expression after antisense transfection in vitro; type: cell-based, human; conditions: SKBr3 cells, 25 nM, vs mock or mismatched (MIS) oligonucleotides
Protocol: Antisense Delivery in vitro. Antisense oligonucleotides against PTEN (ISIS116847: 5′-[…]-3′) (SEQ ID NO:3) and control oligonucleotides (ISIS 116848: 5′-[…]-3′ (SEQ ID NO:4), with six base mismatches to ISIS 116847) have been described (Butler et al., 2002). Cells were plated in 100-mm dishes at 30% confluence and transfected with oligonucleotides (12.5 nM for BT474 and 25 nM for SKBr3 cells) twice using Oligofectamine (Life Technologies, Rockville, Md.) 24 and 72 h post-plating. Ninety-six hours post-plating, cells were re-plated for individual assays described in this report. PTEN expression was determined 120 h post-plating (FIG. 2A).
as §2

T1 sequence (P12931 whole entry): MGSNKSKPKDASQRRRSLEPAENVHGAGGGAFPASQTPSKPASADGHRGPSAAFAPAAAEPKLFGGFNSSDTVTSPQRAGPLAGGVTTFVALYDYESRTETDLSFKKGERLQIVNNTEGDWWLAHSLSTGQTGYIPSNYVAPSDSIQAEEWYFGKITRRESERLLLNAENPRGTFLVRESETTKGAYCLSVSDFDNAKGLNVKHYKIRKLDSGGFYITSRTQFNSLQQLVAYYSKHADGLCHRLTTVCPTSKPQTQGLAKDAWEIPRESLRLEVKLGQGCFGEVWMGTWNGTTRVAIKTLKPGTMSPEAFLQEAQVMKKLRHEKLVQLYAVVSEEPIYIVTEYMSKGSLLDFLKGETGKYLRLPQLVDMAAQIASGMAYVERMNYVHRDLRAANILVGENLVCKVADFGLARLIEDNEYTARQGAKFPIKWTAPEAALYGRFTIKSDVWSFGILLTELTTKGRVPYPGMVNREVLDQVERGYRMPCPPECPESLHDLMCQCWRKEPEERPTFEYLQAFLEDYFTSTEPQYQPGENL

CC(=O)O[C@H]1C(=O)[C@@]2(C)[C@H]([C@H](OC(=O)c3ccccc3)[C@]3(O)C[C@H](OC(=O)[C@H](O)[C@@H](NC(=O)c4ccccc4)c4ccccc4)C(C)=C1C3(C)C)[C@]1(OC(C)=O)CO[C@@H]1C[C@@H]2O [paclitaxel]
cell viability, PTEN AS-transfected vs MIS control-transfected cells (BT474 cells): no statistically significant difference in cell viability

CC(C)(C)n1nc(-c2ccc(Cl)cc2)c2c(N)ncnc21 [PP2]
tyrosine phosphorylation of PTEN (PTEN [1]): dramatically reduced tyrosine phosphorylation of PTEN
Src phosphorylation on Y416 (Src): effectively inhibited Src phosphorylation on Y416

PTEN AS: Antisense oligonucleotides against PTEN, 5′-CTGCTAGCCTCTGGATTTGA-3′ (SEQ ID NO:3) (listed as DNA, chemistry not given here)
PTEN expression in tumor xenografts (PTEN [2]): effectively inhibited; also recorded: reduced
cell proliferation (SKBr3 cells): no significant effect on cell proliferation
endogenous PTEN expression (PTEN [3]): inhibited endogenous PTEN expression; also recorded: reduced
